Data as given in US20060142297A1, “Combination product of inhibitor of the src family of non-recetpor tyrosine kinases and gemcitabine” (priority 2002, published 2006).
Values joined by “and” are separate entries in the source; they are usually repeats but may differ in a detail not shown here. Identical values can stand only once.

Experiments:
[1] = system: L3.6pl pancreatic cancer cells; test: Orthotopic L3.6pl pancreatic tumour model in nude mice: pancreatic tumour weight and liver metastases; assay type: in vivo, human; settings: for Liver Metastases: animals with metastases/animals
From the text: (§1) The test method has been described by C J Bruns et al., Cancer Research, 2000, 60, 2926-2935 and involves the injection of pancreatic tumour cells derived from the COLO 357 human pancreatic cancer cell line into pancreas tissue in a group of nude mice and an evaluation of tumour growth and metastasis into liver node tissue. L3.6pl pancreatic cancer cells were obtained after successive cycles of cell selection from nude mouse tumour tissue that developed after injection of COLO 357 human pancreatic cancer cells. L3.6pl cancer cells (1×10^6 cells) were injected into the pancreas of each animal in several groups of male athymic nude mice (n=8 to 10 per group). […] On the days where both agents were given, the gemcitabine was dosed at least 1 hour before test compound Src-1. A control group of 10 mice received intraperitoneal injections of an equivalent volume of saline according to the same treatment schedule as the combination group. The animals were sacrificed 32 days after tumour cell injection. The pancreatic tumour weight was measured. The incidence of liver metastases was evaluated. All macroscopically enlarged liver nodules were evaluated by histopathology to confirm tumour metastasis.

[2] = Body weight of treated nude mice in the L3.6pl pancreatic tumour model; assay type: in vivo, male athymic nude mice
Description: as §1, with “L3.6pl” for “The test method has been described by C J Bruns et al., Cancer Research, 2000, 60, 2926-2935 and involves the injection of pancreatic tumour cells derived from the COLO 357 human pancreatic cancer cell line into pancreas tissue in a group of nude mice and an evaluation of tumour growth and metastasis into liver node tissue. L3.6pl”

[3] = Src-1 25 mg/kg orally by gavage daily, days 1-5 and 8-12, 32 days after tumour cell injection
[4] = Src-1 50 mg/kg orally by gavage daily, days 1-5 and 8-12, 32 days after tumour cell injection

Structure (SMILES) | Liver Metastases ([1]; gemcitabine 100 mg/kg intraperitoneal twice weekly (days 2, 5, 9, 12), sacrificed 32 days after tumour cell injection, monohydrochloride) | Average Tumour Weight +/− std dev ([1]; gemcitabine 100 mg/kg intraperitoneal twice weekly, 32 days after tumour cell injection) | Average Body Weight +/− std dev ([2]; gemcitabine 100 mg/kg intraperitoneal twice weekly) | Average Tumour Weight +/− std dev [1, 3] | Liver Metastases [1, 3] | Average Tumour Weight +/− std dev [1, 4] | Liver Metastases [1, 4] | Average Body Weight +/− std dev ([2]; Src-1 25 mg/kg orally by gavage daily, days 1-5 and 8-12) | Average Body Weight +/− std dev ([2]; Src-1 50 mg/kg orally by gavage daily, days 1-5 and 8-12)
Cl.Nc1ccn([C@@H]2O[C@H](CO)[C@@H](O)C2(F)F)c(=O)n1 [gemcitabine, 2′-deoxy-2′,2′-difluorocytidine monohydrochloride] | ⅕ and 1/5 | 393 ± 68 mg | 22.7 ± 1.5 g | – | – | – | – | – | –
COc1ccc(Cl)c(Nc2ncnc3cc(OCC4CCN(C)CC4)c(OC)cc23)c1 [Src-1, 4-(2-chloro-5-methoxyanilino)-6-methoxy-7-(N-methylpiperidin-4-ylmethoxy)quinazoline] | – | – | – | 816 ± 118 mg | 0/9 | 827 ± 176 mg | 0/9 | 22.6 ± 1.4 g | 22.3 ± 6.8 g
